Read-outs that look alike come from different tables or passages of the source.
What was measured:
[1] = system: Malassezia furfur; assay: ΣFIC assay against Malassezia furfur (MIC by alamar blue, checkerboard); assay type: cell-based, M. furfur (CBS 1878); details: M. furfur, Pityrosporum Broth, 32° C., lowest concentration giving complete growth inhibition (alamar blue stays blue), active alone; for MIC: Malassezia furfur, read-out: Minimum Inhibition Concentration (MIC)
Method: Synergistic interaction between ZPTO and the AML compounds was determined using the ΣFIC assay against Malassezia furfur. A brief description of the method is given below.
Method: ΣFIC assay against Malassezia furfur
They are then incubated at 32° C. for 48 hours with shaking. Then, 1 ml of the first broth culture is transferred into 9 ml of fresh PB and incubated at 32° C. for 48 hours with shaking. The final culture should contain 2 to 6×10^6 cells/ml. This is achieved by diluting using PB to 5*10^5 cell/ml.
(§1) Binary combinations of ZPTO and the AML compound were prepared in 96-well plate by mixing 20 μl of zinc pyrithione solution with 20 μl of AML compound. The solution in each well were further mixed with 160 μl of PB and 20 μl of M. furfur. The final cell density in the testing plate is around 5*10^4 cell/ml, and the final concentration of actives in each well of the 96-well plate were shown below.
The plate was incubated at 32° C. for one day. Then 20 μl of alamar blue (0.01%) was added into each well with a further incubation for one day to observe the color change. Red color indicates microbial growth and the non-changing blue color indicates no growth.
(§2) The MIC is defined as the absolute lowest concentration of active that provides complete microbial growth inhibition as indicated by the blue color of alamar blue under the tested condition.
The differing behaviour of inhibitory antimicrobials in isolation and mixtures have been widely explored using the concept of the Fractional Concentration (FC) and Fractional Inhibitory Concentration (FIC). The parameter can be defined as follows: […]
(§3) These relationships can be expressed mathematically by summing the fractional MIC values for all the components present in the mixture to give the “fractional inhibition index”. There is no consistent approach in the academic or patent literature in defining precise limiting ΣFIC values that differentiate synergy from additivity or antagonism. In this study, we have adopted a liberal approach defining any binary mixture with ΣFIC<0.9 as showing evidence of synergistic behavior.

[2] = system: Staphylococcus aureus; assay: ΣFIC assay against Staphylococcus aureus (MIC by alamar blue, checkerboard); assay type: cell-based, S. aureus (ATCC 12600); details: for MIC: Staphylococcus aureus, 24 h, read-out: Minimum Inhibition Concentration (MIC); for interaction of the combination (synergy/additivity) in words: conclusion from Table 2
Method: Effect of sphingosine with triclosan as well as triclocarban was also tested. A brief description of the method is given below.
Methods: ΣFIC assay against Staphylococcus aureus
They are then incubated at 37° C. overnight (16 hours) with shaking. The overnight culture is diluted using TSB to 5*10^4 cell/ml.
Zinc pyrithione was serially diluted (2-fold) to prepare in a range of 0.5 to 500 ppm in the growth medium. The AML compound was serially diluted (2-fold) to prepare in a range of 16 to 1,000 ppm for sapienic acid, and palmitoleic acid; and 4 to 250 ppm for other AMLs in growth medium. Triclosan was serially diluted (2-fold) to prepare in a range of 0.2 to 200 ppm and triclocarban in a range of 2 to 2000 ppm in growth medium.
as §1, with “ZPTO or triclosan/triclocarban” for “ZPTO”, “TSB” for “PB”, “S. aureus.” for “M. furfur.”, “4*10^4” for “5*10^4”
Then 20 μl of alamar blue (0.01%) was added into each well, and the plate was incubated at 37° C. for one day to observe the color change. Red color indicates microbial growth and the non-changing blue color indicates no growth.
as §2
The differing behaviors of inhibitory antimicrobials in isolation and mixtures have been widely explored using the concept of the Fractional Concentration (FC) and Fractional Inhibitory Concentration (FIC). The parameter can be defined as follows: […]
as §3

[3] = S. aureus, TSB, 37° C. one day, lowest concentration giving complete growth inhibition (alamar blue stays blue), active alone

Question: What does the source list for `CCCCCCCCCCCCCCC[C@@H](O)[C@@H](N)CO` [dihydrosphingosine]?
Answer: Minimum Inhibition Concentration (MIC) [1]: 1000 ppm; Minimum Inhibition Concentration (MIC) [2, 3]: 6.3 ppm

Question: `CCCCCC/C=C\CCCCCCCC(=O)O` [palmitoleic acid] was tested. Which MIC [1] did it give?
Answer: 5000 mg/L

Question: `CCCCCCCCCCCCCC[C@@H](O)[C@@H](O)[C@@H](N)CO` [phytosphingosine] was tested. Which MIC [1] did it give?
Answer: 125 mg/L

Question: Which “Minimum Inhibition Concentration (MIC)” value [2, 3] does the source give for `CCCCCCCCC/C=C\CCCCC(=O)O` [sapienic acid] here?
Answer: 25 ppm

Question: How did the MIC [1] turn out when `CCCCCCCCCCCCC/C=C/[C@@H](O)[C@@H](N)CO` [sphingosine] was run?
Answer: 1000 mg/L

Question: And the MIC [2, 3]?
Answer: 3.1 mg/L

Question: Which results are given for `O=C(Nc1ccc(Cl)cc1)Nc1ccc(Cl)c(Cl)c1` [triclocarban]?
Answer: interaction of the combination (synergy/additivity) in words ([2]; S. aureus): additive but not synergistic effect; MIC [2, 3]: 3.13 mg/L

Question: What does the source list for `Oc1cc(Cl)ccc1Oc1ccc(Cl)cc1Cl` [triclosan]?
Answer: interaction of the combination (synergy/additivity) in words ([2]; S. aureus): additive but not synergistic effect; MIC [2]: 0.16 mg/L
